Source: US8486974B2 (priority 2007, dated 2013)
Entries after “also recorded” stand apart in the source; their conditions may differ. Where two headings read alike, the source gives them in different places.

How the values were obtained:
MDA synthesis = MDA synthesis by washed platelets; format: cell-based
TXB2 synthesis = assay: Inhibition of TXB2 synthesis in clotting whole blood (ELISA); format: cell-based; settings: 1 hour at 37° C., listed as ISAS
Description: TXA2 is highly evanescent and unsuitable for direct measurement but its metabolite TXB2 is generally believed to provide a useful index of the parent. […] The samples were then centrifuged. Serum was collected and TXB2 was measured using enzyme linked immunosorbent assay (ELISA) kits obtained from Cayman Chemicals.

[1] = format: in vitro ADME; settings: 0.1 mM, pH 7.4
Description: (§1) Pooled plasma/serum solutions (4 ml) were prepared to the correct strength by dilution of plasma with phosphate buffer pH 7.4 (e.g. for a 10% solution 0.4 ml of plasma/serum was added to 3.6 ml of phosphate buffer pH 7.4). Following equilibration of the plasma/serum sample at 37±0.5° C. 100 μl of a stock solution of test compound in acetonitrile (1×10^−4 M) was added and 250 μl aliquots were removed at specified time intervals. Samples were transferred to 1.5 ml Eppendorf tubes containing 500 μl of a 2% w/v solution of nSO4.7H2O (water:acetonitrile, 1:1). Tubes were vortexed for 2 minutes, then centrifuged at 10,000 rpm for 3 minutes at room temperature. Supernatant was aspirated off and analysed by HPLC. The concentration of test compound and metabolites were determined with reference to calibration curves run on that day in the same concentration range and under the same experimental conditions. In order to mimic conditions during the first passage of the drugs after intestinal absorption selected compounds were incubated in phosphate buffer at 37° C. in the presence of microsomes from human liver (HLM) and intestinal epithelium (HIM). The metabolic fate of the esters under these conditions was also determined by RPHPLC by measuring the concentration of drug and metabolites in the medium as a function of time. The identity of participating enzymes was confirmed by using purified enzyme in the case of plasma (BuChE) and by repeating the hydrolysis experiments in the presence of esterase specific inhibitors—isoOMPA for BuChE and BNPP for carboxylesterase. The BuChE activity of plasma and microsomal samples was determined using the Ellman assay (Ellman et al., 1964).
Qualitative hydrolysis screening of Is-2-aspirinate-5-salicylate 2 (0.1 mM) was studied using guinea pig, hamster, rabbit and monkey plasma. The purpose of this test was to determine a suitable species for biological testing and preclinical development. The results were also expected to confirm the role of the human enzymes already identified because these are variously distributed in laboratory animals.

[2] = tested on: typical digestive proteases; assay: Stability in the presence of digestive proteases; format: in vitro ADME
[3] = molecular target: T1, purified human serum BuChE (Homo sapiens, UniProt P06276); assay: Hydrolysis by purified human serum butyrylcholinesterase; format: in vitro ADME; settings: purified butyrylcholinesterase
T1 construct: Purified human serum butyrylcholinesterase (EC 3.1.1.8); purchased Sigma-Aldrich; host or cells: human serum
T1 sequence (P06276 29-602): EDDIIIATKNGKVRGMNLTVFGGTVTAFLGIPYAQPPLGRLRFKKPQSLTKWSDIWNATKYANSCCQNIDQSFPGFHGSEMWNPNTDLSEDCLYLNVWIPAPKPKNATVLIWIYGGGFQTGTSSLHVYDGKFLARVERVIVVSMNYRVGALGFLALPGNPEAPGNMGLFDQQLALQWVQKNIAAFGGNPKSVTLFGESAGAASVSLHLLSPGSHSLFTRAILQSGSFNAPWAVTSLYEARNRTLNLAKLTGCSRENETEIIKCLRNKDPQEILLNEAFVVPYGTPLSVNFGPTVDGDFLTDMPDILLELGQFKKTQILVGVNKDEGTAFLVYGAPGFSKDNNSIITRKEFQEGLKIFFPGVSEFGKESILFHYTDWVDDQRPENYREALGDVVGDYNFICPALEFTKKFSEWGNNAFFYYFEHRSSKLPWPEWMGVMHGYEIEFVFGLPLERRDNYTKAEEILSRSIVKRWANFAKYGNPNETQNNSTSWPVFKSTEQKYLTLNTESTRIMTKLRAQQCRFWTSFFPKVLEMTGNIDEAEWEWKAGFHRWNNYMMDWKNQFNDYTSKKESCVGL
Description: as §1

[4] = female, human, 0.1 mM, pH 7.4
GPIIb/IIIa = assay: Flow cytometry of activated GPIIb/IIIa (PAC-1) on platelets; format: cell-based, human; settings: concentrations at which aspirin has no effect
Description: In order to analyze receptor expression on the surface of individual platelets and to minimize platelet activation caused by sample preparation procedures, no stirring or vortexing steps were used. The abundance of activated GPIIb/IIIa and P-selectin on the surface of platelets in the presence and absence of inhibitors was measured by flow cytometry. Platelet samples were first activated with agonists either collagen or ADP. When platelet aggregation reached 50% maximal light transmission the reaction was terminated by 10-fold dilution with physiologic saline. Resting platelets were used as control. In most of the experiments, platelets were preincubated with inhibitors for 10 min prior to the addition of agonists. Platelet samples were then incubated in the dark without stirring for 5 min at room temperature in the presence of saturating concentrations (10 μg/ml) of P-selectin (CD62P-APC). The activated GPIIb/IIIa platelet receptors were measured using PAC-1 monoclonal antibody at the same concentration as above. PAC-1 specifically recognizes an epitope on the high-affinity GPIIb/IIIa complex of activated platelets at or near the […]. Following incubation, samples were diluted in FACS Flow fluid and analyzed within 5 min using a BD FACSArray (BD Biosciences, Oxford, UK). Flow cytometry was performed on single stained platelet samples as described before^3. The instrument was set up to measure the size (forward scatter), granularity (side scatter) and cell fluorescence. A two-dimensional analysis gate of forward and side scatter was drawn in order to include single platelets and exclude platelet aggregates and microparticles. Antibody binding was measured by analyzing individual platelets for fluorescence. The mean fluorescence intensity was determined after correction for cell autofluorescence. For each sample, the fluorescence was analyzed using a logarithmic scale. Fluorescence histograms were obtained for 10,000 individual events. Data were analyzed using Cytometer RXP software and expressed as a percentage of control fluorescence in arbitrary units.

[5] = Hydrolysis in human blood; format: in vitro ADME
[6] = tested on: rabbit liver carboxylesterase; format: in vitro ADME; settings: 0.1 mM
[7] = tested on: ADP-induced platelet aggregation; assay: ADP-induced platelet aggregation in PRP; format: cell-based, human
Description: Blood was collected from healthy volunteers who had not taken any drugs known to affect platelet function for at least 14 days prior to the study. Platelet rich plasma (PRP) and washed platelet suspensions (2.5×10^8 platelets/ml) were prepared from blood as previously described.
Platelet aggregation was measured by light aggregometry as previously described. Briefly, PRP and washed platelet samples (2.5×10^8/ml) were placed in a whole blood ionized calcium lumi-aggregometer (Chronolog Corp., Havertown, Pa., U.S.A), and (BIO/DATA CORPORATION) and incubated for 10 min at 37° C., with stirring at 900 r.p.m., prior to the addition of aggregating agents. Aggregation was initiated by the addition of agonists, and monitored by Aggro-Link software for at least 6 min. For experiments using inhibitors, aggregation was initiated after 10 min preincubation with these compounds
Collagen at different concentrations (3-5 ug/ml) was also used to induce platelet aggregation. The submaximal concentrations of agonists, i.e. the concentrations that gave approximately 95% of the maximal aggregation were used to study the effects of inhibitors of aggregation. Results were expressed in percent changes in maximal light transmission, with 100% representing light transmission of platelet medium alone.

CC(=O)Oc1ccccc1C(=O)O[C@H]1CO[C@H]2[C@@H]1OC[C@H]2OC(=O)c1ccccc1O [Compound 2, Isosorbide-2-aspirinate-5-salicylate]
MDA synthesis by washed platelets (MDA synthesis): effective | inhibition of TXB2 (TXA2) synthesis (TXB2 synthesis): effective in preventing the TXA2 synthesis; also recorded: significantly more potent than aspirin | Drug disappearance time ([1]; guinea pig, 1 hr): present after 1 hr | Drug disappearance time ([1]; hamster): 20 min | Drug disappearance time ([1]; monkey): 5 min | stability in the presence of typical digestive proteases [2]: stable | conversion to aspirin in the presence of purified butyrylcholinesterase [3]: almost complete conversion to aspirin | Drug disappearance [4]: 10 min | constitutive platelet glyco-protein expression (GPIIb/IIIa): dampens constitutive platelet glyco-protein expression | half-life [5]: < 2 min | Drug disappearance [6]: 5 min | potency relative to aspirin, inhibition of ADP-induced platelet aggregation [7]: significantly more potent than aspirin
